Assay results from US12679805B2, “Bioactive substance exhibiting antimalarial activity, and use for same” (RIKEN, priority 2021, dated 2026).
Converted amounts (≈) assume the structure as drawn. “And” between values parts separate entries of the source, which are not always exact repeats. Equal values may be shown once.

Columns and labels:
Hela cells = experiment: Cytotoxicity (growth inhibitory activity), HeLa cells; assay type: cell-based; conditions: for IC50: Homo sapiens
Excerpt: (§1) Subsequently, the cytotoxicity of DHLC was examined. More specifically, the activity of DHLC to various types of cancer cells (Hela cells, HL-60 cells, MKN74 cells, NB-1 cells, T98G cells) were examined.

[1] = test system: drug-resistant Plasmodium falciparum (K1); experiment: Antimalarial activity against chloroquine-resistant Plasmodium falciparum (K1); assay type: cell-based; conditions: FIG. 1
MKN74 cells = experiment: Cytotoxicity (growth inhibitory activity), MKN74 cells; assay type: cell-based
Excerpt: as §1

T98G cells = experiment: Cytotoxicity (growth inhibitory activity), T98G cells; assay type: cell-based
Excerpt: as §1

[2] = test system: wild-type Plasmodium falciparum (pf3D7 strain); experiment: Antimalarial activity, pLDH Malstat analysis, wild-type Plasmodium falciparum (pf3D7 strain); assay type: cell-based
Experimental: Specifically, first, a wild-type malarial parasite, Plasmodium falciparum (pf3D7 strain) was cultured in a human type-A Rh+ erythrocyte-containing solution prepared such that the hematocrit level was 3% in a hypoxic condition (O2 concentration: 5%, CO2 concentration: 5%). A culture medium used herein was a complete medium (Gibco, RPMI 1640 medium) containing 25 mM N-(2-hydroxyethyl)piperazine-N′-2-ethanesulfonic acid (HEPES), 10 […] glucose, 5 μg/mL gentamicin and 10% bovine serum albumin. Thereafter, DHLC solutions having 16 different concentrations within the range of 0.015 nM to 500 nM as shown in Table 2 were prepared using dimethyl sulfoxide (DMSO). Subsequently, to each of the wells of a 96 well microplate, 100 μl of a culture solution containing Plasmodium falciparum (pf3D7 strain) cultured in accordance with a method as mentioned above, was added, and then, 0.5 μl of a DHLC solution different in concentration was added to each well. Three sample sets were prepared in the same manner by adding 16 DHLC solutions different in concentration to wells, and then, allowed to stand still at 37° C. for 72 hours to expose Plasmodium falciparum (pf3D7 strain) to DHLC. Note that, each well contains the complete medium (RPMI medium), and the malarial parasite concentration was 0.3% and hematocrit level was 2%. Thereafter, the 96 well microplates containing samples were frozen at −80° C. overnight, and then, thawed at room temperature to hemolyze red blood cells. Lactate dehydrogenase (pLDH), which is an intracellular metabolic enzyme of malarial parasite, in the samples contained in individual wells, was stained with a Malstat reagent (Flow Inc.) in accordance with the protocol of Malstat analysis (Am. J. Trop. Med. Hyg. 48(6), 1993, pp. 739-741) known in the art and the absorbance thereof was measured at 620 nm. Based on the results, the infection rates (%) of cells with malarial parasite, at different concentrations of DHLC were calculated. Note that, a positive control used herein was a sample prepared by adding a solution prepared by diluting an existing antimalarial drug, i.e., chloroquine diphosphate, with distilled water, to wild-type Plasmodium falciparum (pf3D7 strain). A negative control used herein was a sample prepared by adding a solution prepared by diluting DMSO with distilled water, to a wild-type Plasmodium falciparum (pf3D7 strain). For measuring a background value, an erythrocyte-containing solution not infected with Plasmodium falciparum, was used.

HL-60 cells = experiment: Cytotoxicity (growth inhibitory activity), HL-60 cells; assay type: cell-based; conditions: for IC50: Homo sapiens
Excerpt: as §1

NB-1 cells = experiment: Cytotoxicity (growth inhibitory activity), NB-1 cells; assay type: cell-based; conditions: Homo sapiens, NB1
Excerpt: as §1

Plasmodium falciparum = conditions: reported in Non Patent Literature 1; cited from earlier work

In the case of `C\C=C(/C=C(C)/C=C/C=C/C=C(\C)C(=O)C1CC(O)(CCO)NC1=O)C(=O)OC` (stereo not drawn) [DHLC], the IC50 (Hela cells) was 21 µg/mL (≈ 52 µM), the “antimalarial activity against drug-resistant Plasmodium falciparum (K1)” value [1] was “as high as against wild-type Plasmodium falciparum” and the “growth inhibitory activity (IC50 value)” value (MKN74 cells) was over 30 µg/mL. The IC50 (MKN74 cells; Homo sapiens, MKN-74) was over 30 µg/mL, the “growth inhibitory activity (IC50 value)” value (T98G cells) was over 30 µg/mL and the IC50 (T98G cells; Homo sapiens) was over 30 µg/mL. For the same compound, the “pf3D7(%) infection rate of cells with malarial parasite” value (“pf3D7(%) infection rate of cells” for short) ([2]; 0.015 nM, 72 hours) was 98.9%, the “pf3D7(%) infection rate of cells” value ([2]; 0.03 nM, 72 hours) was 109.8% and the “pf3D7(%) infection rate of cells” value ([2]; 0.06 nM, 72 hours) was 89.4%. The “pf3D7(%) infection rate of cells” value ([2]; 0.12 nM, 72 hours) was 92.9%, the “pf3D7(%) infection rate of cells” value ([2]; 0.24 nM, 72 hours) was 77.2% and the “pf3D7(%) infection rate of cells” value ([2]; 0.49 nM, 72 hours) was 74.1%. For the same compound, the “pf3D7(%) infection rate of cells” value ([2]; 0.98 nM, 72 hours) was 41.7%, the “pf3D7(%) infection rate of cells” value ([2]; 1.95 nM, 72 hours) was 28.2% and the “pf3D7(%) infection rate of cells” value ([2]; 3.90 nM, 72 hours) was 22.9%. The “pf3D7(%) infection rate of cells” value ([2]; 7.81 nM, 72 hours) was 23.7%, the “pf3D7(%) infection rate of cells” value ([2]; 15.63 nM, 72 hours) was 13.3% and the “pf3D7(%) infection rate of cells” value ([2]; 31.25 nM, 72 hours) was 9.6%. The “pf3D7(%) infection rate of cells” value ([2]; 62.5 nM, 72 hours) was 14.3%, the “pf3D7(%) infection rate of cells” value ([2]; 125 nM, 72 hours) was 10.2% and the “pf3D7(%) infection rate of cells” value ([2]; 250 nM, 72 hours) was 8.5%. For the same compound, the “pf3D7(%) infection rate of cells” value ([2]; 500 nM, 72 hours) was 13.9%, the IC50 ([2]; Plasmodium falciparum, pf3D7 strain, 72 hours, read-out: growth inhibitory activity (IC50 value)) was 0.65 nM and 0.00026 µg/mL and the “antimalarial activity relative to NG-391” value ([2]; versus NG-391 IC50=0.75 μg/ml) was at least 1000 times. For the same compound, the “antimalarial activity relative to lucilactaene” value ([2]; versus lucilactaene IC50=0.063 μg/ml) was at least 100 times, the IC50 (HL-60 cells) was 3.4 µg/mL (≈ 8.43 µM) and the IC50 (NB-1 cells) was 0.34 µg/mL (≈ 0.843 µM).
With `C\C=C(/C=C(C)/C=C/C=C/C=C(\C)C(=O)[C@H]1C(=O)N[C@]2(O)CCO[C@H]12)C(=O)O` [Demethyl lucilactaene] the “growth inhibitory activity (IC50 value)” value (Hela cells) was over 30 µg/mL and the “growth inhibitory activity (IC50 value)” value (HL-60 cells) was over 30 µg/mL.
For `C\C=C(/C=C(C)/C=C/C=C/C=C(\C)C(=O)[C@H]1C(=O)N[C@]2(O)CCO[C@H]12)C(=O)OC` [Lucilactaene], the IC50 (Hela cells) is listed as 10 µg/mL (≈ 24.9 µM), the IC50 (HL-60 cells) is listed as 7 µg/mL (≈ 17.4 µM) and the “antimalarial activity IC50” value (Plasmodium falciparum) is listed as 0.063 µg/mL. For the same compound, the “antimalarial effect relative to NG-391” value (Plasmodium falciparum) was “about 12 times”.
In the case of `C\C=C(/C=C(C)/C=C/C=C/C=C(\C)C(=O)[C@]12O[C@H]1C(O)(CCO)NC2=O)C(=O)OC` (stereo partly drawn) [NG-391], the IC50 (Hela cells) is listed as 5.9 µg/mL (≈ 14.1 µM), the IC50 (HL-60 cells) is listed as 6.6 µg/mL (≈ 15.8 µM) and the “antimalarial activity IC50” value (Plasmodium falciparum) is listed as 0.75 µg/mL.
